Laboratory results taken from publication PMC4641156, “Evaluation of a Novel Tc-99m Labelled Vitamin B12 Derivative for Targeting Escherichia coli and Staphylococcus aureus In Vitro and in an Experimental Foreign-Body Infection Model” (Molecular Imaging and Biology, 2015).

Tests used:
[1] = Biodistribution after i.v. injection in tissue cage mouse model (organs, tissues, cages overall)
Procedure: (§1) C57Bl/6 mice from in-house breeding or purchased from Charles River Laboratories GmbH (Sulzfeld, Germany) were housed in the Animal Facility of the Department of Biomedicine, University Hospital, Basel, Switzerland. Experiments were performed in accordance to the regulations of Swiss veterinary law. The Institutional Animal Care and Use Committee approved the study protocol. Drinking water and standard laboratory food pellets (CR) were provided ad libitum. To reduce interference of high vitamin B12 level in mice, animals randomized for Cbl biodistribution studies were fed with a vitamin B12-reduced diet (Provimi Kliba AG, Kaiseraugst, Switzerland) beginning at the age of 10 weeks. At the age of 12 weeks, one sterile polytetrafluoroethylene (Teflon) tube (32 × 10 mm), perforated by 130 regularly spaced holes of 1 mm diameter, was aseptically implanted into the back of each mouse, as previously described. Each cage was weighted and numbered before implantation. Two weeks after surgery, clips were removed from healed wounds, and sterility of the cage was confirmed by culture of aspirated cage fluid. On the following day, 5 × 10^5 CFU of E. coli or 5 × 10^6 CFU of S. aureus, resuspended in 200 μl of 0.9 % saline, were injected into cages. Sterile 0.9 % saline was injected in cages in animals used as negative controls.
The two different experimental set-up of biodistribution were adapted to the known radiopharmaceutical binding/non-binding to plasma protein, persistence in organs and tissues and half-life of the labelling radioisotope.
(§2) Accumulation of radiopharmaceuticals in cage fluids was measured by resuspending 100 μl of aspirated fluid in 1 ml PBS and counted in a gamma counter. The percentage of injected dose (% IDTCF/ml) was calculated as measured CPM normalized per 1 ml cage fluid and divided by the CPM0 (injected dose). For determination of radiopharmaceutical biodistribution, mice were sacrificed with an intraperitoneal injection of 50–80 μl saline solution of pentothal (100 mg/ml). Blood was collected by cardiac puncture, and mice were perfused with 0.9 % saline for around 5 min. Following, tissues were dissected, weighted and collected into test tubes for γ-counter (blood, heart, liver, spleen, stomach, kidneys, lungs, intestine, muscle, bone and cage). The percentage of injected dose (% IDtissue/g) was calculated as CPM associated to each organ divided by its weight in grams and by the CPM0.

E. coli-infected cages = experiment: Distribution into E. coli-infected tissue cages and cage fluids; details: for Cage—E. coli, mean % ID/g tissue ± SD: explanted E. coli-infected cage
Procedure: (§3) For in vivo studies, overnight cultures were prepared in 5 ml tryptic soy broth (TSB), incubated at 37 °C for 18–20 h. Bacterial suspensions were then washed three times, resuspended in 5 ml of sterile 0.9 % saline and diluted.
as §1, §2

[2] = Distribution into sterile (non-infected) tissue cages and cage fluids; details: for Cage—sterile, mean % ID/g tissue ± SD: explanted sterile cage
Procedure: as §1, §2

S. aureus-infected cages = experiment: Distribution into S. aureus-infected tissue cages and cage fluids; details: for Cage—S. aureus, mean % ID/g tissue ± SD: explanted S. aureus-infected cage
Procedure: as §3, §1, §2

[3] = tested on: S. aureus (ATCC 35556, methicillin susceptible); experiment: In vitro binding of radiotracers to S. aureus (kinetics and competition with unlabeled Cbl); type: cell-based, Staphylococcus aureus
Procedure: Laboratory strains E. coli (ATCC 25922) and S. aureus (ATCC 35556, methicillin susceptible) were used. Bacteria were stored at −70 °C using a cryovial bead preservation system (Microbank, Pro-Lab Diagnostics, Richmond Hill, ON, Canada). Single cryovial beads were cultured overnight on Columbia sheep blood agar plates (Becton Dickinson, Heidelberg, Germany). For in vitro binding studies, overnight cultures were prepared in snap-lid tubes from 2 to 3 CFU in 5 ml of a synthetic minimal medium depleted of vitamin B12. After 18–20 h of incubation at 37 °C and 200 rpm, the cultures were diluted 1:100 in the same medium and further incubated at 37 °C to mid-logarithmic phase in sealed tubes. […] Five hundred microlitres of resuspended cultures were transferred to Eppendorf tubes and used for the measurement of binding to viable bacteria at 37 °C. For testing binding at 4 °C, bacterial suspension in PBS were let to equilibrate for 1 h at 4 °C before adding the radiopharmaceuticals. […] The bacterial suspensions were then centrifuged, resuspended in PBS and used for further studies. […] Colony counts remained <10 CFU/ml. Five hundred microlitres of each radiopharmaceutical solution was added to the 500 μl of bacterial suspensions. Binding assays were performed in quadruplicate vials per testing conditions. Afterwards, vials were centrifuged for 5 min at 13,500 rpm and 4 °C, and pellets were washed with 500 μl of cooled PBS. Supernatants and resuspended pellets were counted in a multi-well NaI γ-counter (Cobra; Packard, USA) and the counts per minute (CPM) recorded. The percentage of radiolabeled Cbl in the pellets was calculated as the percentage of the CPMp/CPM0 ratio per log10 8.0 CFU/ml, where CPMp were the CPM associated to pellets and CPM0 were the total CPM of the radiolabeled Cbl added per vial.

[4] = tested on: transcobalamin II (TC II); design: method as in PMID 12831983, PMID 18413759; details: cited from earlier work
E. coli (ATCC 25922) = experiment: In vitro binding of radiotracers to E. coli (kinetics and competition with unlabeled Cbl); type: cell-based, Escherichia coli
Procedure: Laboratory strains E. coli (ATCC 25922) and S. aureus (ATCC 35556, methicillin susceptible) were used. Bacteria were stored at −70 °C using a cryovial bead preservation system (Microbank, Pro-Lab Diagnostics, Richmond Hill, ON, Canada). Single cryovial beads were cultured overnight on Columbia sheep blood agar plates (Becton Dickinson, Heidelberg, Germany). For in vitro binding studies, overnight cultures were prepared in snap-lid tubes from 2 to 3 CFU in 5 ml of a synthetic minimal medium depleted of vitamin B12. After 18–20 h of incubation at 37 °C and 200 rpm, the cultures were diluted 1:100 in the same medium and further incubated at 37 °C to mid-logarithmic phase in sealed tubes. […] Five hundred microlitres of resuspended cultures were transferred to Eppendorf tubes and used for the measurement of binding to viable bacteria at 37 °C. For testing binding at 4 °C, bacterial suspension in PBS were let to equilibrate for 1 h at 4 °C before adding the radiopharmaceuticals. […] Supernatants and resuspended pellets were counted in a multi-well NaI γ-counter (Cobra; Packard, USA) and the counts per minute (CPM) recorded. The percentage of radiolabeled Cbl in the pellets was calculated as the percentage of the CPMp/CPM0 ratio per log10 8.0 CFU/ml, where CPMp were the CPM associated to pellets and CPM0 were the total CPM of the radiolabeled Cbl added per vial.

[5] = cage fluid, vs sterile controls

## O=C([O-])CC(O)(CC(=O)[O-])C(=O)[O-].[67Ga+3] [[^67Ga]citrate, Gallium-67 citrate]
[1]; 72 h after i.v. injection
  Blood, mean % ID/g tissue ± SD: 0.46 ± 0.20 % ID/g tissue
  Bone, mean % ID/g tissue ± SD: 10.99 ± 2.40 % ID/g tissue
  Heart, mean % ID/g tissue ± SD: 1.26 ± 0.10 % ID/g tissue
  Intestine, mean % ID/g tissue ± SD: 2.00 ± 0.40 % ID/g tissue
  Kidneys, mean % ID/g tissue ± SD: 10.73 ± 1.30 % ID/g tissue
  Liver, mean % ID/g tissue ± SD: 7.44 ± 0.90 % ID/g tissue
  Lungs, mean % ID/g tissue ± SD: 2.11 ± 0.30 % ID/g tissue
  Muscle, mean % ID/g tissue ± SD: 0.69 ± 0.20 % ID/g tissue
  Spleen, mean % ID/g tissue ± SD: 6.09 ± 0.70 % ID/g tissue
  Stomach, mean % ID/g tissue ± SD: 3.73 ± 1.50 % ID/g tissue
[1]; cage fluids
  Time to peak values in cages: ≤ 12 h
E. coli-infected cages; 72 h p.i.
  Cage fluid/blood ratio, mice infected with E. coli: 5.41 ± 0.52
E. coli-infected cages; 72 h after i.v. injection
  Cage—E. coli, mean % ID/g tissue ± SD: 3.99 ± 1.10 % ID/g tissue
[2]; 72 h p.i.
  Cage fluid/blood ratio, control (non-infected) mice: 1.14 ± 0.21
[2]; 72 h after i.v. injection
  Cage—sterile, mean % ID/g tissue ± SD: 1.45 ± 0.50 % ID/g tissue
S. aureus-infected cages; 72 h p.i.
  Cage fluid/blood ratio, mice infected with S. aureus: 3.56 ± 0.87
S. aureus-infected cages; 72 h after i.v. injection
  Cage—S. aureus, mean % ID/g tissue ± SD: 9.45 ± 2.30 % ID/g tissue

## O=C([O-])CN(CCN(CC(=O)[O-])CC(=O)[O-])CCN(CC(=O)[O-])CC(=O)[O-].[99Tc+4] [[^99mTc]DTPA]
[1]; 30 min after i.v. injection
  Blood, mean % ID/g tissue ± SD: 1.46 ± 1.10 % ID/g tissue
  Bone, mean % ID/g tissue ± SD: 0.47 ± 0.30 % ID/g tissue
  Intestine, mean % ID/g tissue ± SD: 0.90 ± 0.50 % ID/g tissue
  Kidneys, mean % ID/g tissue ± SD: 3.92 ± 0.80 % ID/g tissue
  Liver, mean % ID/g tissue ± SD: 0.33 ± 0.20 % ID/g tissue
  Lungs, mean % ID/g tissue ± SD: 0.40 ± 0.20 % ID/g tissue
  Muscle, mean % ID/g tissue ± SD: 0.34 ± 0.30 % ID/g tissue
  Spleen, mean % ID/g tissue ± SD: 0.19 ± 0.00 % ID/g tissue
  Stomach, mean % ID/g tissue ± SD: 1.67 ± 1.70 % ID/g tissue
[1]; 4 h after i.v. injection
  Blood, mean % ID/g tissue ± SD: 0.02 ± 0.10 % ID/g tissue
  Bone, mean % ID/g tissue ± SD: 0.05 ± 1.50 % ID/g tissue
  Heart, mean % ID/g tissue ± SD: 0.05 ± 0.00 % ID/g tissue
  Intestine, mean % ID/g tissue ± SD: 0.66 ± 0.20 % ID/g tissue
  Kidneys, mean % ID/g tissue ± SD: 0.93 ± 0.80 % ID/g tissue
  Liver, mean % ID/g tissue ± SD: 0.09 ± 0.00 % ID/g tissue
  Lungs, mean % ID/g tissue ± SD: 0.06 ± 0.10 % ID/g tissue
  Muscle, mean % ID/g tissue ± SD: 0.06 ± 1.10 % ID/g tissue
  Spleen, mean % ID/g tissue ± SD: 0.06 ± 0.00 % ID/g tissue
  Stomach, mean % ID/g tissue ± SD: 0.05 ± 1.10 % ID/g tissue
[1]; 24 h after i.v. injection
  Blood, mean % ID/g tissue ± SD: 0.01 ± 0.00 % ID/g tissue
  Bone, mean % ID/g tissue ± SD: 0.01 ± 0.00 % ID/g tissue
  Heart, mean % ID/g tissue ± SD: 0.01 ± 0.00 % ID/g tissue
  Intestine, mean % ID/g tissue ± SD: 0.02 ± 0.00 % ID/g tissue
  Kidneys, mean % ID/g tissue ± SD: 0.15 ± 0.00 % ID/g tissue
  Liver, mean % ID/g tissue ± SD: 0.02 ± 0.00 % ID/g tissue
  Lungs, mean % ID/g tissue ± SD: 0.01 ± 0.00 % ID/g tissue
  Muscle, mean % ID/g tissue ± SD: 0.00 ± 0.00 % ID/g tissue
  Spleen, mean % ID/g tissue ± SD: 0.02 ± 0.00 % ID/g tissue
  Stomach, mean % ID/g tissue ± SD: 0.02 ± 0.00 % ID/g tissue
E. coli-infected cages; 4 h after i.v. injection
  Cage—E. coli, mean % ID/g tissue ± SD: 0.91 ± 0.15 % ID/g tissue
E. coli-infected cages; 24 h after i.v. injection
  Cage—E. coli, mean % ID/g tissue ± SD: 0.15 ± 0.10 % ID/g tissue
[2]; 30 min after i.v. injection
  Cage—sterile, mean % ID/g tissue ± SD: 2.88 ± 0.50 % ID/g tissue
[2]; 4 h after i.v. injection
  Cage—sterile, mean % ID/g tissue ± SD: 0.34 ± 0.40 % ID/g tissue
[2]; 24 h after i.v. injection
  Cage—sterile, mean % ID/g tissue ± SD: 0.01 ± 0.00 % ID/g tissue
S. aureus-infected cages; 4 h after i.v. injection
  Cage—S. aureus, mean % ID/g tissue ± SD: 0.40 ± 0.10 % ID/g tissue
S. aureus-infected cages; 24 h after i.v. injection
  Cage—S. aureus, mean % ID/g tissue ± SD: 0.05 ± 0.10 % ID/g tissue

## [^99mTc]PAMA(4)-cyanocobalamin [[^99mTc]PAMA(4)-Cbl]
E. coli-infected cages; [5]
  Time p.i. at which cage fluid retention was significantly higher in E. coli-infected than control mice: 8 h
[2]; 24 h p.i.
  Cage fluid/blood ratio, non-infected mice: 1.53 ± 0.30
[3]; ethanol-killed and/or heat-killed bacteria
  Binding to killed S. aureus: no binding
[3]; relative to [57Co]Cbl
  In vitro binding to S. aureus, fold lower than [57Co]Cbl: 3 fold
S. aureus-infected cages; [5]
  Time p.i. at which cage fluid % IDTCF/ml was significantly higher in S. aureus-infected than control mice: 4 h
[4]
  Binding to the major Cbl transport protein TC II: abolished binding

## cyanocobalamin [unlabeled Cbl]
[3]; S. aureus, 3 h
  Excess of unlabeled Cbl that decreased [99mTc]PAMA(4)-Cbl binding to S. aureus: 1 fold
[3]; both 37 and 4 °C, 3 h
  Excess of unlabeled Cbl that reduced [57Co]Cbl binding to S. aureus: 10 fold
E. coli (ATCC 25922); 4 °C and ethanol-killed bacteria
  Cold Cbl excess sufficient to reduce maximal [57Co]Cbl binding to E. coli to 50 %: 10 fold
E. coli (ATCC 25922); 37 °C, viable bacteria, 1 h simultaneous incubation
  Concentration of unlabeled Cbl required to show inhibition of [57Co]Cbl binding to E. coli: 1000 fold
